In PubChem BioAssay AID2060510 (Molecular Pharmacology Branch, DTP, NCI, 2025):

Test system: 439559-082-T-J2-PDC spheroids viability
Experiment: Anticancer human tumor 439559-082-T-J2-PDC patient-derived colon adenocarcinoma cell line growth inhibition [GQUAD]
Conditions: for IC50: curve of first compound; for viability, T/C: stronger effect = lower value
In short: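 Multi-cell-type spheroids of tumor cells with HUVEC and mesenchymal stem cells, treated with drug combinations. Concentrations descend in half-log steps from near clinical Cmax, or from 10 microM where Cmax is unknown; viability read-out.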
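Further: spheroids exposed to the agents for 7 days before readout.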
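Wherever viability, T/C is given: percent of luminescence signal in DMSO vehicle wells taken as 100% viability.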

CCCS(=O)(=O)Nc1ccc(F)c(C(=O)c2c[nH]c3ncc(-c4ccc(Cl)cc4)cc23)c1F + CN(C)c1ccc(Nc2c3ccc(NC(=O)CCN4CCCC4)cc3nc3cc(NC(=O)CCN4CCCC4)ccc23)cc1
IC50 (second compound 0.0316 µM): > 10 µM
IC50 (second compound 0.1 µM): > 10 µM
IC50 (second compound 0.316 µM): 9.61 µM
IC50 (second compound 1 µM): > 10 µM
IC50 (second compound 3.16 µM): 9.15 µM
IC50 (second compound 10 µM): > 10 µM
viability, T/C (second compound 0.0316 µM, first compound 0.0316 µM): 118%
viability, T/C (second compound 0.0316 µM, first compound 0.1 µM): 93.8%
viability, T/C (second compound 0.0316 µM, first compound 0.316 µM): 100%
viability, T/C (second compound 0.0316 µM, first compound 1 µM): 92.4%
viability, T/C (second compound 0.0316 µM, first compound 3.16 µM): 116%
viability, T/C (second compound 0.0316 µM, first compound 10 µM): 59.5%
viability, T/C (second compound 0.1 µM, first compound 0.0316 µM): 90.5%
viability, T/C (second compound 0.1 µM, first compound 0.1 µM): 101%
viability, T/C (second compound 0.1 µM, first compound 0.316 µM): 96.7%
viability, T/C (second compound 0.1 µM, first compound 1 µM): 87.9%
viability, T/C (second compound 0.1 µM, first compound 3.16 µM): 103%
viability, T/C (second compound 0.1 µM, first compound 10 µM): 50.1%
viability, T/C (second compound 0.316 µM, first compound 0.0316 µM): 98.4%
viability, T/C (second compound 0.316 µM, first compound 0.1 µM): 102%
viability, T/C (second compound 0.316 µM, first compound 0.316 µM): 94.1%
viability, T/C (second compound 0.316 µM, first compound 1 µM): 102%
viability, T/C (second compound 0.316 µM, first compound 3.16 µM): 113%
viability, T/C (second compound 0.316 µM, first compound 10 µM): 48.1%
viability, T/C (second compound 1 µM, first compound 0.0316 µM): 91.9%
viability, T/C (second compound 1 µM, first compound 0.1 µM): 108%
viability, T/C (second compound 1 µM, first compound 0.316 µM): 103%
viability, T/C (second compound 1 µM, first compound 1 µM): 108%
viability, T/C (second compound 1 µM, first compound 3.16 µM): 107%
viability, T/C (second compound 1 µM, first compound 10 µM): 54.2%
viability, T/C (second compound 3.16 µM, first compound 0.0316 µM): 96%
viability, T/C (second compound 3.16 µM, first compound 0.1 µM): 101%
viability, T/C (second compound 3.16 µM, first compound 0.316 µM): 108%
viability, T/C (second compound 3.16 µM, first compound 1 µM): 101%
viability, T/C (second compound 3.16 µM, first compound 3.16 µM): 112%
viability, T/C (second compound 3.16 µM, first compound 10 µM): 45.5%
viability, T/C (second compound 10 µM, first compound 0.0316 µM): 90.9%
viability, T/C (second compound 10 µM, first compound 0.1 µM): 103%
viability, T/C (second compound 10 µM, first compound 0.316 µM): 99.8%
viability, T/C (second compound 10 µM, first compound 1 µM): 105%
viability, T/C (second compound 10 µM, first compound 3.16 µM): 108%
viability, T/C (second compound 10 µM, first compound 10 µM): 50.5%
